Reference: patent US20200316051A1, “TLR7/8 ANTAGONISTS AND USES THEREOF” (Merck Patent GmbH, priority 2017, published 2020)

Legend:
TLR7/8 [1] = experiment: Cytokine production in human PBMCs stimulated with TLR7 agonist, let7c miRNA or let7/DOTAP in the presence of TLR7/8 antagonist; type: cell-based
Description: Human PBMCs were treated with TLR7 agonist (TLR7), let7c miRNA or transfected with let7c miRNA (let7/DOTAP) in the presence of TLR7/8 antagonist (Compound 467 in Table 1 above). Levels of IL-6 (FIG. 3) and IFNα (FIG. 4) were measured following overnight incubation.

TLR7/8 [2] = experiment: Activation of human PBMCs by LL37 alone or in complex with GU trimer or let-7c miRNA, with or without TLR7/8 inhibitor; type: cell-based
Description: Binding of LL37 to miRNA enables delivery of miRNA to human PBMCs and stimulate TLR7/8-mediated production of cytokines. Human recombinant LL37 protein was used alone, or in a complex with GU trimer or let-7c miRNA to activate human PBMCs in the presence or absence of TLR7/8 inhibitor (Compound 467 in Table 1 above). Levels of IL-6 (FIG. 5) and IFNα (FIG. 6) were measured following overnight incubation.

C[C@@H]1CN(c2ccc(C#N)c3nccnc23)C[C@H](CN2CCC(N3CCOCC3)CC2)O1 [Compound 467]
levels of IL-6 induced by let-7 miRNA (TLR7/8 [1]; overnight incubation (FIG. 3)): blocks production of cytokines | levels of IFNα induced by let-7 miRNA (TLR7/8 [1]; overnight incubation (FIG. 4)): blocks production of cytokines | TLR7/8 activation by LL37-RNA complexes, levels of IL-6 (TLR7/8 [2]; overnight incubation (FIG. 5)): the activation is suppressed | TLR7/8 activation by LL37-RNA complexes, levels of IFNα (TLR7/8 [2]; overnight incubation (FIG. 6)): the activation is suppressed
